Among the test systems are A498 renal; A549 NSCLC; ACHN renal; COLO 205 colon; DU-145 prostate; EKVX NSCLC; HCT-15 colon; KM12 colon; M14 melanoma; MDA-MB-231 breast; SF-268 CNS; SF-295 CNS; SK-MEL-2 melanoma; SK-MEL-28 melanoma; UACC-257 melanoma; UACC-62 melanoma; HCC-2998 colon.
Holding throughout (assay): growth of human tumour cells (NCI), 48 h

SMILES strings stand for the structures. Values joined by “and” are separate entries in the source; they are usually repeats but may differ in a detail not shown here. Equal values may be shown once.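 The compound was tested at five concentrations on cells cultured in 96-well plates, with a 48-hour exposure period. GI50 = concentration required for 50% inhibition of growth. TGI marks complete inhibition of growth.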

With `CN1C(=O)C23CCCCC2CC1(c1ccccc1)S3` (stereo unspecified), the TGI with A498 renal, with A549 NSCLC, in the assay on ACHN renal, with COLO 205 colon, with DU-145 prostate and with EKVX NSCLC was greater than 100 µM throughout. Further, the TGI in the assay with HCT-15 colon, in the assay on KM12 colon, in the assay with M14 melanoma, with MDA-MB-231 breast, in the assay with SF-268 CNS and in the assay on SF-295 CNS was greater than 100 µM in each case. Further, the TGI with SK-MEL-2 melanoma is greater than 100 µM; in the assay with SK-MEL-28 melanoma, greater than 100 µM; in the assay on UACC-257 melanoma it was 54.5 µM; in the assay on UACC-62 melanoma it was greater than 100 µM.
As for `Nc1c(N2CCCCC2)c(=O)nc2[nH]/c(=C\c3ccccc3)c(=O)n12`, the TGI in the assay on A498 renal, with A549 NSCLC, in the assay on ACHN renal, in the assay with COLO 205 colon, with DU-145 prostate and in the assay with EKVX NSCLC was greater than 100 µM throughout. Further, the TGI in the assay with HCC-2998 colon, in the assay on HCT-15 colon, with KM12 colon, in the assay on M14 melanoma, in the assay with MDA-MB-231 breast and in the assay on SF-268 CNS was greater than 100 µM in each case. Also, the TGI in the assay on SF-295 CNS, in the assay on SK-MEL-28 melanoma and in the assay on UACC-257 melanoma was greater than 100 µM in each case.
As to `CN(C)CCCNC(=O)c1cc(NC(=O)c2cc(NC(=O)[C@@H]3C[C@H]3C(=O)Nc3cc(C(=O)Nc4cc(C(=O)NCCCN(C)C)n(C)c4)n(C)c3)cn2C)cn1C`, the TGI with A549 NSCLC, with ACHN renal, in the assay with COLO 205 colon, in the assay on DU-145 prostate, with EKVX NSCLC and in the assay with HCC-2998 colon was greater than 100 µM each time. Also, the TGI in the assay on KM12 colon, in the assay on M14 melanoma, in the assay with MDA-MB-231 breast, in the assay with SF-268 CNS, in the assay with SF-295 CNS and with SK-MEL-2 melanoma was greater than 100 µM in each case. Moreover, the TGI with SK-MEL-28 melanoma and in the assay with UACC-257 melanoma was greater than 100 µM throughout.
Turning to `COc1ccc(-c2nc(-c3cnccn3)n(COCCO)n2)cc1`, the TGI in the assay with A549 NSCLC, in the assay on COLO 205 colon, in the assay on DU-145 prostate, in the assay with HCC-2998 colon, with HCT-15 colon and in the assay with KM12 colon was greater than 100 µM each time. Moreover, the TGI in the assay on M14 melanoma, in the assay with MDA-MB-231 breast, in the assay on SF-268 CNS, in the assay on SF-295 CNS, in the assay on SK-MEL-28 melanoma and in the assay with UACC-257 melanoma was greater than 100 µM each time. The compound further had a TGI in the assay on UACC-62 melanoma greater than 100 µM.
Take `COC(=O)c1c2c(cc3c1CC1(Cc4cc5c(cc4C1)CCC5)C3)CCC2`: the TGI with A498 renal, in the assay with A549 NSCLC, in the assay on ACHN renal, with DU-145 prostate, in the assay on EKVX NSCLC and in the assay on HCC-2998 colon was greater than 100 µM throughout. In addition, the TGI with HCT-15 colon, with M14 melanoma, with MDA-MB-231 breast, with SF-268 CNS, in the assay on SF-295 CNS and in the assay on SK-MEL-2 melanoma was greater than 100 µM throughout. Further, the TGI in the assay with SK-MEL-28 melanoma and in the assay on UACC-257 melanoma was greater than 100 µM throughout.
As for `N#Cc1c(-c2ccccc2)c(C#N)c(=O)n(C2OC(CO)C(O)C(O)C2O)c1S` (stereo unspecified), the TGI in the assay on A498 renal, in the assay on A549 NSCLC, in the assay with ACHN renal, in the assay with DU-145 prostate, with HCC-2998 colon and in the assay with HCT-15 colon was greater than 100 µM in each case. In addition, the TGI with KM12 colon, in the assay on M14 melanoma, in the assay on MDA-MB-231 breast, with SF-268 CNS, with SF-295 CNS and in the assay on SK-MEL-2 melanoma was greater than 100 µM each time. Besides, the TGI with SK-MEL-28 melanoma, in the assay on UACC-257 melanoma and with UACC-62 melanoma was greater than 100 µM throughout. Besides, the GI50 with HCC-2998 colon was > 100 µM and 40.4 µM.
On to `O=C(O)CCC(NC(=O)c1ccc(CNc2nc3ccccc3nc2C(=O)O)cc1)C(=O)O` (stereo unspecified), for which the TGI in the assay with A498 renal, in the assay with A549 NSCLC, with ACHN renal, with COLO 205 colon, with DU-145 prostate and in the assay with EKVX NSCLC was greater than 100 µM throughout. Also, the TGI with HCT-15 colon, in the assay with KM12 colon, in the assay with M14 melanoma, in the assay with MDA-MB-231 breast, in the assay with SF-268 CNS and in the assay with SF-295 CNS was greater than 100 µM in each case. The TGI in the assay on SK-MEL-2 melanoma, in the assay on SK-MEL-28 melanoma, in the assay on UACC-257 melanoma and in the assay on UACC-62 melanoma was greater than 100 µM each time.
`COc1ccc(Nc2nc3ccccc3nc2C(=O)O)cc1OC`: the TGI is 75.1 µM in the assay on A498 renal; greater than 100 µM with A549 NSCLC; greater than 100 µM in the assay on ACHN renal; greater than 100 µM in the assay with COLO 205 colon; greater than 100 µM in the assay with DU-145 prostate; greater than 100 µM in the assay on EKVX NSCLC. The TGI with HCC-2998 colon, in the assay with HCT-15 colon, in the assay on KM12 colon, with M14 melanoma, with MDA-MB-231 breast and in the assay with SF-268 CNS was greater than 100 µM each time. The TGI with SF-295 CNS, in the assay with SK-MEL-28 melanoma, in the assay on UACC-257 melanoma and with UACC-62 melanoma was greater than 100 µM in each case.
Take `O=[N+]([O-])c1nccn1CCCNCCCn1ccnc1[N+](=O)[O-]`: the TGI in the assay with A498 renal, in the assay with A549 NSCLC, in the assay with ACHN renal, with COLO 205 colon, in the assay with DU-145 prostate and in the assay on EKVX NSCLC was greater than 100 µM in each case. The TGI with HCT-15 colon, in the assay on KM12 colon, in the assay on M14 melanoma, with MDA-MB-231 breast, in the assay on SF-268 CNS and with SF-295 CNS was greater than 100 µM in each case. For the same compound, the TGI in the assay with SK-MEL-2 melanoma, in the assay on SK-MEL-28 melanoma, in the assay on UACC-257 melanoma and in the assay on UACC-62 melanoma was greater than 100 µM in each case.

Values taken from PubChem BioAssay (NCI).
